Measurements: PubChem BioAssay AID248 (DTP/NCI, 2004)
Where “and” joins values, the source holds several entries; their conditions need not be identical. Equal values may be shown once. Inconclusive results and toxic doses are left out. No stated cut-off is given here; in the data, active means T/C of 150% or more; inactive means T/C below 125%.

System: L1210 leukemia ip in BDF1 mice, survival T/C
Assay: NCI In Vivo Anticancer Drug Screen. Data for tumor model L1210 Leukemia (intraperitoneal) in B6D2F1 (BDF1) mice
Details: endpoint: mean survival time, higher = longer survival
In short: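 Survival endpoint. Drug-treated group vs vehicle group, expressed as T divided by C. Tumor passaged by transplantation.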

[1] = dose: 100.0 mg/kg/injection, schedule: Q04DX003 (ip), vehicle: saline
[2] = dose: 200.0 mg/kg/injection, schedule: Q04DX003 (ip), vehicle: saline
[3] = dose: 400.0 mg/kg/injection, schedule: Q04DX003 (ip), vehicle: saline
[4] = dose: 50.0 mg/kg/injection, schedule: Q01DX001 (ip), vehicle: other
[5] = dose: 100.0 mg/kg/injection, schedule: Q01DX001 (ip), vehicle: other
[6] = dose: 200.0 mg/kg/injection, schedule: Q01DX001 (ip), vehicle: other
[7] = dose: 400.0 mg/kg/injection, schedule: Q01DX001 (ip), vehicle: other
[8] = dose: 100.0 mg/kg/injection, schedule: Q01DX009 (ip), vehicle: saline with Tween-80
[9] = dose: 50.0 mg/kg/injection, schedule: Q01DX009 (ip), vehicle: Klucel (hydroxypropylcellulose) (HPC)
[10] = dose: 100.0 mg/kg/injection, schedule: Q04DX003 (ip), vehicle: Klucel (hydroxypropylcellulose) (HPC)
[11] = dose: 200.0 mg/kg/injection, schedule: Q04DX003 (ip), vehicle: Klucel (hydroxypropylcellulose) (HPC)
[12] = dose: 400.0 mg/kg/injection, schedule: Q04DX003 (ip), vehicle: Klucel (hydroxypropylcellulose) (HPC)

Measured: T/C

CC(=O)OCC1OC(N2C(=O)/C(=C(/C)c3ccccn3)SC2=S)C(OC(C)=O)C(OC(C)=O)C1OC(C)=O (stereo not given)
inactive: dose: 25.0 mg/kg/injection, schedule: Q01DX005 (ip), vehicle: other 92 % of control | dose: 50.0 mg/kg/injection, schedule: Q01DX005 (ip), vehicle: other 97 % of control | dose: 100.0 mg/kg/injection, schedule: Q01DX005 (ip), vehicle: other 94 % of control | dose: 200.0 mg/kg/injection, schedule: Q01DX005 (ip), vehicle: other 96 % of control | dose: 400.0 mg/kg/injection, schedule: Q01DX005 (ip), vehicle: other 96 % of control

CCC(C)C(CC(=O)O)C(=O)O (stereo not given)
inactive: [1] 97 % of control | [2] 94 % of control | [3] 92 % of control

O=C1c2ccccc2C(=O)N1CC(=O)N(C(=O)NC1CCCCC1)C1CCCCC1
inactive: dose: 100.0 mg/kg/injection, schedule: Q01DX001 (ip), vehicle: water 109 % of control | dose: 100.0 mg/kg/injection, schedule: Q01DX009 (ip), vehicle: water 103 % of control | dose: 100.0 mg/kg/injection, schedule: Q04DX003 (ip), vehicle: water 94 % of control | dose: 200.0 mg/kg/injection, schedule: Q01DX001 (ip), vehicle: water 104 % of control | dose: 200.0 mg/kg/injection, schedule: Q01DX009 (ip), vehicle: water 95 % of control | dose: 200.0 mg/kg/injection, schedule: Q04DX003 (ip), vehicle: water 96 % of control | dose: 400.0 mg/kg/injection, schedule: Q01DX001 (ip), vehicle: water 98 % of control | dose: 400.0 mg/kg/injection, schedule: Q01DX009 (ip), vehicle: water 103 % of control | dose: 400.0 mg/kg/injection, schedule: Q04DX003 (ip), vehicle: water 97 % of control

Cc1cccc(Cl)c1NC(=O)C(C)N1CCCC1 (stereo not given)
inactive: dose: 12.5 mg/kg/injection, schedule: Q01DX009 (ip), vehicle: saline 101 % of control | dose: 25.0 mg/kg/injection, schedule: Q01DX009 (ip), vehicle: saline 98 % of control | dose: 50.0 mg/kg/injection, schedule: Q01DX009 (ip), vehicle: saline 93 % of control

O=S1(=O)c2ccccc2Oc2ccccc21
inactive: [4] 93 % of control | [5] 93 % of control | [6] 100 % of control | [7] 96 % of control

O=[N+]([O-])c1ccccc1/C=N/N1CCN(/N=C/c2ccccc2[N+](=O)[O-])CC1
inactive: dose: 200.0 mg/kg/injection, schedule: Q01DX001 (ip), vehicle: carboxymethylcellulose (CMC) 89 % of control | dose: 400.0 mg/kg/injection, schedule: Q01DX001 (ip), vehicle: carboxymethylcellulose (CMC) 89 % of control

O=C1C2CC=C(c3ccccc3)C1CCC2 (stereo not given)
inactive: dose: 75.0 mg/kg/injection, schedule: Q01DX001 (ip), vehicle: other 103 % of control | dose: 150.0 mg/kg/injection, schedule: Q01DX001 (ip), vehicle: other 97 % of control | dose: 300.0 mg/kg/injection, schedule: Q01DX001 (ip), vehicle: other 102 % of control

O=C(NS(=O)(=O)c1ccc(Cl)cc1)c1ccccc1
inactive: [8] 94 % of control | dose: 100.0 mg/kg/injection, schedule: Q04DX003 (ip), vehicle: acetone 104 % of control | dose: 200.0 mg/kg/injection, schedule: Q04DX003 (ip), vehicle: acetone 107 % of control | dose: 400.0 mg/kg/injection, schedule: Q04DX003 (ip), vehicle: acetone 93 % of control

O=C(OCCO)c1cc(OCCO)nc(Cl)n1
inactive: [9] 100 % of control | dose: 100.0 mg/kg/injection, schedule: Q01DX009 (ip), vehicle: Klucel (hydroxypropylcellulose) (HPC) 100 % of control | dose: 200.0 mg/kg/injection, schedule: Q01DX009 (ip), vehicle: Klucel (hydroxypropylcellulose) (HPC) 89 % of control

CCCCOC(=O)c1ccc(NC(=O)C(Cl)Cl)cc1
inactive: [1] 99 % of control | [2] 89 % of control | [3] 89 % of control

O=C(OCC1OC(n2c(=O)[nH]c(=S)c3ncsc32)C(OC(=O)c2ccccc2)C1OC(=O)c1ccccc1)c1ccccc1 (stereo not given)
inactive: dose: 100.0 mg/kg/injection, schedule: Q01DX005 (ip), vehicle: saline 95 % of control | dose: 200.0 mg/kg/injection, schedule: Q01DX005 (ip), vehicle: saline 91 % of control

CN(C)C(=O)CCCCC(=O)N(C)C
inactive: dose: 100.0 mg/kg/injection, schedule: Q04DX002 (ip), vehicle: saline 94 % of control | dose: 200.0 mg/kg/injection, schedule: Q04DX002 (ip), vehicle: saline 86 % of control | dose: 400.0 mg/kg/injection, schedule: Q04DX002 (ip), vehicle: saline 105 % of control

CN=C1CC2CCC(C2)C1(O)c1ccccc1 (stereo not given)
inactive: dose: 100.0 mg/kg/injection, schedule: Q01DX001 (ip), vehicle: saline 101 % of control

CC(C)(C)OOC(=O)c1ccccc1
inactive: dose: 25.0 mg/kg/injection, schedule: Q01DX009 (ip), vehicle: Klucel (hydroxypropylcellulose) (HPC) 96 % of control | [4] 90 % of control | [9] 97 % of control | dose: 75.0 mg/kg/injection, schedule: Q01DX009 (ip), vehicle: Klucel (hydroxypropylcellulose) (HPC) 97 % of control and 101 % of control | [5] 100 % of control | [10] 107 % of control | [6] 102 % of control | [11] 115 % of control | [7] 94 % of control | [12] 96 % of control

CSc1[nH]c2ncnc(N)c2c1C#N
inactive: [5] 88 % of control | [6] 101 % of control

CCN(CC)CC(O)Cn1cnc2c(N)ncnc21 (stereo not given)
inactive: dose: 50.0 mg/kg/injection, schedule: Q04DX003 (ip), vehicle: saline 104 % of control | [1] 111 % of control | [2] 93 % of control

O=C(Nc1cccc2ccccc12)OC1CCCCC1Br (stereo not given)
inactive: dose: 200.0 mg/kg/injection, schedule: Q01DX001 (ip), vehicle: saline with Tween-80 89 % of control | dose: 400.0 mg/kg/injection, schedule: Q01DX001 (ip), vehicle: saline with Tween-80 89 % of control

Nc1[nH]c(=S)ncc1-c1ccc(Cl)c(Cl)c1
inactive: [10] 101 % of control | [11] 97 % of control | [12] 93 % of control

COc1ccc(OC)c(NC(=O)NNC(=O)c2ccccc2Cl)c1
inactive: dose: 25.0 mg/kg/injection, schedule: Q01DX009 (ip), vehicle: saline with Tween-80 100 % of control | dose: 50.0 mg/kg/injection, schedule: Q01DX009 (ip), vehicle: saline with Tween-80 91 % of control | [8] 94 % of control

c1ccc2c(c1)nnn1c3ccccc3nc21
inactive: dose: 25.0 mg/kg/injection, schedule: Q04DX003 (ip), vehicle: Klucel (hydroxypropylcellulose) (HPC) 102 % of control | dose: 50.0 mg/kg/injection, schedule: Q04DX003 (ip), vehicle: Klucel (hydroxypropylcellulose) (HPC) 94 % of control | [5] 97 % of control | dose: 100.0 mg/kg/injection, schedule: Q01DX009 (ip), vehicle: other 101 % of control | [10] 104 % of control | [6] 108 % of control and 92 % of control | dose: 200.0 mg/kg/injection, schedule: Q01DX009 (ip), vehicle: other 86 % of control | [7] 95 % of control and 92 % of control | dose: 400.0 mg/kg/injection, schedule: Q01DX009 (ip), vehicle: other 90 % of control

CC(NC(=O)CNC(=O)CNC(=O)OCc1ccccc1)C(=O)O (stereo not given)
inactive: [10] 97 % of control | [11] 100 % of control | [12] 91 % of control
